In data set [1] the test system is human cryopreserved hepatocytes. The data set can be described thus: Metabolic stability (hepatocytes). The settings on record: human cryopreserved hepatocytes.
Method: The metabolic stability of compounds was evaluated in human cryopreserved hepatocytes (BioreclamationlVT, NY, USA) in duplicate. Test articles (or controls) were added to a 24-well incubation plate (Becton Dickinson Labware, USA) containing 0.5×10^6 hepatocytes/mL in suspension. The plate was held at 37° C. and agitated with constant orbital shaking (orbital speed at 350 rpm). At each time point (0, 5, 10, 15, 20, 30, 45, 60, 90, 120, 150 and 180 min) a Tecan Evo robot aspirated 50 μL of the incubation mixture and 100 μL of acetonitrile containing internal standard to quench the reaction. […] Samples were centrifuged (3000 rpm for 10 minutes) and the plate sealed prior to injection onto an LC-MS/MS system.
The appropriate parent/daughter ions were monitored for the test article and IS with the LC-MS/MS system. The intrinsic clearance (Clint; expressed μL/min/million cells) was determined from the first order elimination constant (k, min^−1) of test article decay and the volume of the incubation. […] The intrinsic organ CL was then converted to the hepatic clearance (CLhep) using the well-stirred model as shown below, where Qh is human hepatic blood flow.
Hepatic clearance is expressed as mL/min/kg. The hepatic clearance relates to the flow of blood through the liver that is completely cleared of the compound.
For data set [2], the target named is T1, GST-hRIPK1 (8-327) (Homo sapiens (Human), UniProt Q13546). The data set can be described thus: Fluorescent Polarization Binding (FP Binding) assay.
The target of data set [3] is T1, GST-hRIPK1 (8-327). Kind of data set: ADP-Glo kinase assay. In kind it is biochemical. On the procedure:
GST-hRIPK1 (8-327) enzyme was generated by Proteros GmbH by Baculovirus expression system.
Test compounds were diluted in DMSO and 0.1 μL of solution was dispensed to each well of a 384-well white solid microplate. The assay buffer was 50 mM HEPES pH 7.5, 50 mM NaCl, 30 mM MgCl2. The buffer was supplemented with 0.02% CHAPS, 0.01% of Pluronic F127, 0.1 mg/mL BSA and 1 mM DTT. MnCl2, 5 mM, was included in the assay buffer on the day of the experiment. The enzymatic reaction comprised 1.5 μg/mL GST-hRIPK1 (8-327) and 50 μM ATP for receptor interacting protein kinase 1 and 15 μM ATP. 5 μL of enzyme and 5 μL of ATP were added to the plate at twice the final assay concentration and incubated at room temperature for 3 hours. Following this reaction, 10 μL of ADP-Glo reagent (Promega) was added to each well and incubated for 40 min at room temperature. This stops the kinase reaction and depletes any remaining ATP. 20 μL of ADP-Glo detection reagent was then added to each well and incubated at room temperature for at least 15 minutes. The detection reagent converts ADP to ATP and introduces luciferase and luciferin to detect ATP. The luminescence is then measured with the Envision (PerkinElmer) plate reader. Test compound inhibition was expressed as percent inhibition of internal assay controls. For concentration response curves, normalized data is fit and IC50 determined using XL-fit (IDBS) for Excel. The IC50 were averaged to determine a mean value, for a minimum of two independent experiments.
Test compound inhibition was expressed as percent inhibition of internal assay controls. For concentration response curves, normalized data is fit and IC50 determined using XL-fit (IDBS) for Excel. The IC50 were averaged to determine a mean value, for a minimum of two independent experiments.
A general note: ADP-Glo turns the ADP formed in a reaction into a luminescent signal.

The conditions of data set [4]: male, Sprague-Dawley Crl:CD(SD), in vivo, iv.
Method: The protein binding in plasma was determined using a Rapid Equilibrium Dialysis Device (Thermo Scientific RED Device) or 96-well dialyzer apparatus (HTDialysis LLC). […] If required, plasma samples were pre-incubated (2 hours at 37° C.) with diisopropyl fluorophosphate (DFP) at the final concentration of 100 μM to prevent compound degradation due to amide hydrolysis. Appropriate volumes of spiked samples along with blank phosphate buffer were added to either device and incubated at 37° C. for a total of 5 hours with agitation at 500 rpm. Following incubation, an equal aliquot of dialysed matrix (plasma or buffer) is added to an equal volume of the opposite blank matrix such that the volume of buffer to plasma are equal. Mixed matrix samples were extracted by protein precipitation using acetonitrile containing the appropriate IS. Samples were then centrifuged for 10 min at 2800 rpm. Supernatants were collected and diluted and then injected on to an HPLC-MS/MS or UPLC-MS/MS system. Samples were analyzed by monitoring the appropriate parent/daughter ion transitions for the test and control compounds. The peak area ratios were used to measure test item concentrations. The fraction unbound (Afu) was determined as the ratio of the peak area ratio in buffer divided by the peak area ratio in plasma.
The PK properties of test articles were determined in male Sprague-Dawley Crl:CD(SD) rats, male Beagle dogs and male cynomolgus monkeys. Studies were conducted to the highest standards of animal welfare in accordance with national legislation and under approval of the internal animal care and use committees.
Compounds were administered by IV bolus to animals following an overnight fast. […] The formulations were administered at dose volumes ranging from 0.5-2 mL/kg. The IV dose ranged from 0.5-1 mg/kg.
Following dose administration, 8-9 serial blood samples were collected over 24 hours. Samples were mixed with anticoagulant and placed on wet ice prior to processing. Plasma was harvested following centrifugation, extracted using protein precipitation with acetonitrile containing IS. The processed supernatant was analyzed using UPLC or LC-MS/MS using specific parent/daughter ion pairs for the test article and IS. Plasma concentrations were determined using a calibration curve prepared using known concentrations of analyte. Pharmacokinetic parameters utilizing measured concentrations were calculated using Phoenix WinNonlin. The unbound plasma clearance was calculated as the ratio of the total body clearance divided by the fraction unbound in plasma.
For data set [5], the system named is FADD-deficient Jurkat cells. The data set can be described thus: Cellular necroptosis assay (human TNFα-induced necrosis, CellTiter-Glo). In kind it is cell-based. The settings on record: Homo sapiens, Jurkat, 48 h, TNFα 10 ng/mL, read-out: Cell IC50.

From patent US10604535B2, “Compounds, compositions and methods” (Denali Therapeutics Inc., priority 2016, dated 2020) come the findings set out here.

The pIC50 is the negative decadic logarithm of the IC50, by convention in mol/L.

Each structure is given as a SMILES string. pIC50: −log10 of the molar value.

T1 sequence (Q13546 8-327): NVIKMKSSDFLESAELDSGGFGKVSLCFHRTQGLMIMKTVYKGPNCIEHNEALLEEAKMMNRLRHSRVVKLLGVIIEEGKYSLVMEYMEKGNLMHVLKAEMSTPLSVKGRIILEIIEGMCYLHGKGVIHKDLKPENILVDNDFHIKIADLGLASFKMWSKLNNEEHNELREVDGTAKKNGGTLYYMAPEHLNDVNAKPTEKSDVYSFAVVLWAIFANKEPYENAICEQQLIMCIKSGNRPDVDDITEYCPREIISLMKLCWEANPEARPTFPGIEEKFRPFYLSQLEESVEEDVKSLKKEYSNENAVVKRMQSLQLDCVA

On to `CN1C(=O)[C@@H](NC(=O)c2cn(Cc3ccccc3)nn2)[C@H]2C[C@H]2c2nccnc21` [Example 195, 1-benzyl-N-((7S,7aS,8aR)-5-methyl-6-oxo-5,6,7,7a,8,8a-hexahydrocyclopropa[d]pyrazino[2,3-b]azepin-7-yl)-1H-1,2,3-triazole-4-carboxamide], for which the “Human hepatocyte CLhep Avg” value in data set [1] is listed as 7.1 mL/min/kg. This compound also showed a pIC50 at GST-hRIPK1 (8-327) [2] of 6.00 to 10.00. For `CN1C(=O)[C@@H](NC(=O)c2cc(Cc3ccccc3)on2)COc2cccnc21` [Example 142, (S)-5-Benzyl-N-(5-methyl-4-oxo-2,3,4,5-tetrahydropyrido[3,2-b][1,4]oxazepin-3-yl)isoxazole-3-carboxamide] the same measures were 16 mL/min/kg and 6.00 to 10.00. The compound `CC(=O)N[C@H]1COc2ccccc2N(C)C1=O` [Example 26, (S)—N-(5-methyl-4-oxo-2,3,4,5-tetrahydrobenzo[b][1,4]oxazepin-3-yl)acetamide] showed a negative logarithm of the IC50 (pIC50) against GST-hRIPK1 (8-327) [3] of under 5.00. For the compound `[2H]C([2H])([2H])N1C(=O)[C@@H](NC(=O)c2nn(Cc3ccccc3)cc2F)[C@@H](C)Oc2ncccc21` [Example 205, 1-benzyl-N-((3S,4R)-1-trideuteriomethyl-4-methyl-2-oxo-1,2,3,4-tetrahydropyrido[2,3-b][1,4]oxazepin-3-yl)-4-fluoro-1H-pyrazole-3-carboxamide], the “Human hepatocyte CLhep Avg” value in data set [1] is 11 mL/min/kg. This compound also gave a pIC50 at GST-hRIPK1 (8-327) [2] of 6.00 to 10.00.

Turning to `C[C@H]1Oc2cccnc2N(C)C(=O)[C@H]1NC(=O)c1nn(Cc2ccccc2)cc1F` [Example 92, 1-benzyl-N-((2R,3S)-2,5-dimethyl-4-oxo-2,3,4,5-tetrahydropyrido[3,2-b][1,4]oxazepin-3-yl)-4-fluoro-1H-pyrazole-3-carboxamide], at GST-hRIPK1 (8-327) [2], the pIC50 was 6.00 to 10.00. Further, the “Rat unbound CL” value in data set [4] was determined as 420 mL/min/kg. For the compound `O=C(N[C@H]1COC[C@H]2CCCN2C1=O)c1cc(Cc2ccccc2)on1` [Example 21, 5-benzyl-N-((4S,9aR)-5-oxohexahydro-1H,3H-pyrrolo[2,1-c][1,4]oxazepin-4-yl)isoxazole-3-carboxamide], on GST-hRIPK1 (8-327) [3], the pIC50 is under 5.00. As for `CN1C(=O)[C@@H](NC(=O)c2nnc(Cc3cccc(C#N)c3)[nH]2)COc2ccccc21` [Example 163, (S)-5-(3-cyanobenzyl)-N-(5-methyl-4-oxo-2,3,4,5-tetrahydrobenzo[b][1,4]oxazepin-3-yl)-4H-1,2,4-triazole-3-carboxamide], in data set [1], the “Human hepatocyte CLhep Avg” value was determined as 0 mL/min/kg. In addition, the pIC50 at GST-hRIPK1 (8-327) [2] was 6.00 to 10.00. As to `Cc1nnc(C(=O)N[C@H]2COc3ccccc3N(C)C2=O)[nH]1` [Example 25, (S)-5-methyl-N-(5-methyl-4-oxo-2,3,4,5-tetrahydrobenzo[b][1,4]oxazepin-3-yl)-4H-1,2,4-triazole-3-carboxamide], at GST-hRIPK1 (8-327) [3], the pIC50 is under 5.00. With `N#Cc1cccc(Cn2cc(F)c(C(=O)N[C@@H]3C(=O)Nc4c(F)cc(F)cc4[C@@H]4C[C@H]34)n2)c1` [Example 170A, 1-(3-cyanobenzyl)-N-((1aS,2S,8bR)-5,7-difluoro-3-oxo-1,1a,2,3,4,8b-hexahydrobenzo[b]cyclopropa[d]azepin-2-yl)-4-fluoro-1H-pyrazole-3-carboxamide], the “Human hepatocyte CLhep Avg” value in data set [1] was 3.1 mL/min/kg. At GST-hRIPK1 (8-327) [2], this compound showed a pIC50 of 6.00 to 10.00. Regarding `C[C@H]1Oc2cccnc2N(C)C(=O)[C@H]1NC(=O)c1ncn(Cc2cccc(C#N)c2)n1` [Example 172, 1-(3-cyanobenzyl)-N-((2R,3S)-2,5-dimethyl-4-oxo-2,3,4,5-tetrahydropyrido[3,2-b][1,4]oxazepin-3-yl)-1H-1,2,4-triazole-3-carboxamide], the “Human hepatocyte CLhep Avg” value in data set [1] amounted to 5.3 mL/min/kg. Further, on GST-hRIPK1 (8-327) [2], the pIC50 is 6.00 to 10.00. Also, the “Rat unbound CL” value in data set [4] was 65 mL/min/kg.

In the case of `CN1C(=O)[C@@H](NCC(=O)NCc2ccccc2)COc2ccccc21` [Example 18, (S)—N-benzyl-2-((5-methyl-4-oxo-2,3,4,5-tetrahydrobenzo[b][1,4]oxazepin-3-yl)amino)acetamide], the pIC50 against GST-hRIPK1 (8-327) [3] is under 5.00. Same read-out and setting: under `CN1CCCC[C@H](NC(=O)c2nnc(Cc3ccccc3)[nH]2)C1=O` [Example 23, (S)-5-benzyl-N-(1-methyl-2-oxoazepan-3-yl)-4H-1,2,4-triazole-3-carboxamide] stands under 5.00.

As to `CN1C(=O)[C@@H](NC(=O)c2nnc(Cc3ccccc3)s2)[C@H]2C[C@H]2c2nccnc21` [Example 198, 5-benzyl-N-((7S,7aS,8aR)-5-methyl-6-oxo-5,6,7,7a,8,8a-hexahydrocyclopropa[d]pyrazino[2,3-b]azepin-7-yl)-1,3,4-thiadiazole-2-carboxamide], the “Human hepatocyte CLhep Avg” value in data set [1] was found to be 8.5 mL/min/kg. The compound further showed a pIC50 on GST-hRIPK1 (8-327) [2] of 6.00 to 10.00. Compound `CN1CC(NC(=O)c2nnc(Cc3ccccc3)[nH]2)CCc2ccccc21` (stereo not drawn) [Example 20, 5-benzyl-N-(1-methyl-2,3,4,5-tetrahydro-1H-benzo[b]azepin-3-yl)-4H-1,2,4-triazole-3-carboxamide] had a pIC50 on GST-hRIPK1 (8-327) [3] of 5.00 to 6.00. For the compound `CN1C(=O)[C@@H](NC(=O)c2cc(Cc3ccccc3)on2)COc2ccccc21` [C, reference compound], the “Human hepatocyte CLhep Avg” value in data set [1] is given as 19 mL/min/kg. Besides, the pIC50 in data set [5] is 9.00. On to `CN1C(=O)[C@@H](NC(=O)c2cc(C3(c4ccccc4)CC3)on2)COc2cccnc21` [Example 77, (S)—N-(5-methyl-4-oxo-2,3,4,5-tetrahydropyrido[3,2-b][1,4]oxazepin-3-yl)-5-(1-phenylcyclopropyl)isoxazole-3-carboxamide], for which the “Human hepatocyte CLhep Avg” value in data set [1] is on record as 19 mL/min/kg. In the case of `CN1C(=O)[C@@H](NC(=O)c2nnc(Cc3ccccc3)o2)CCc2cccnc21` [Example 148A, (S)-5-benzyl-N-(9-methyl-8-oxo-6,7,8,9-tetrahydro-5H-pyrido[2,3-b]azepin-7-yl)-1,3,4-oxadiazole-2-carboxamide], in data set [1], the “Human hepatocyte CLhep Avg” value was 12 mL/min/kg. Besides, the negative logarithm of the IC50 (pIC50) on GST-hRIPK1 (8-327) [2] is 6.00 to 10.00.

Take `Cc1cc(C(=O)N[C@H]2COc3ccccc3N(C)C2=O)n(Cc2ccccc2)n1` [Example 16, (S)-1-benzyl-3-methyl-N-(5-methyl-4-oxo-2,3,4,5-tetrahydrobenzo[b][1,4]oxazepin-3-yl)-1H-pyrazole-5-carboxamide]: the pIC50 at GST-hRIPK1 (8-327) [3] is under 5.00.

For the compound `CN1C(=O)[C@@H](NC(=O)c2cnn3c2[C@@H](c2ccccc2)CC3)COc2ccccc21` [Example 17, (R)—N—((S)-5-methyl-4-oxo-2,3,4,5-tetrahydrobenzo[b][1,4]oxazepin-3-yl)-4-phenyl-5,6-dihydro-4H-pyrrolo[1,2-b]pyrazole-3-carboxamide], on GST-hRIPK1 (8-327) [3], the pIC50 is under 5.00. On GST-hRIPK1 (8-327) [3], `CN1C(=O)[C@@H](NC(=O)c2ccc(C#N)n2C)COc2ccccc21` [Example 24, (S)-5-cyano-1-methyl-N-(5-methyl-4-oxo-2,3,4,5-tetrahydrobenzo[b][1,4]oxazepin-3-yl)-1H-pyrrole-2-carboxamide] showed a pIC50 of under 5.00. As to `CN1C(=O)[C@@H](NC(=O)c2nnc(Cc3cccc(C#N)c3)[nH]2)COc2cccnc21` [Example 161, (S)-5-(3-cyanobenzyl)-N-(5-methyl-4-oxo-2,3,4,5-tetrahydropyrido[3,2-b][1,4]oxazepin-3-yl)-4H-1,2,4-triazole-3-carboxamide], the “Human hepatocyte CLhep Avg” value in data set [1] was 0 mL/min/kg. Moreover, the pIC50 on GST-hRIPK1 (8-327) [2] is 6.00 to 10.00. Compound `O=C(NC1CCc2ccccc2CC1)c1cc(Cc2ccccc2)on1` [Example 15, 5-benzyl-N-(6,7,8,9-tetrahydro-5H-benzo[7]annulen-7-yl)isoxazole-3-carboxamide] gave a pIC50 on GST-hRIPK1 (8-327) [3] of under 5.00. The compound `O=C(N[C@H]1COC[C@@H]2CCCN2C1=O)c1nnc(Cc2ccccc2)[nH]1` [Example 27, 5-benzyl-N-((4S,9aS)-5-oxohexahydro-1H,3H-pyrrolo[2,1-c][1,4]oxazepin-4-yl)-4H-1,2,4-triazole-3-carboxamide] showed a pIC50 against GST-hRIPK1 (8-327) [3] of under 5.00.

Regarding `CCN1C(=O)[C@@H](NC(=O)c2cc(Cc3ccccc3)on2)COc2ccccc21` [Example 19, (S)-5-benzyl-N-(5-ethyl-4-oxo-2,3,4,5-tetrahydrobenzo[b][1,4]oxazepin-3-yl)isoxazole-3-carboxamide], the pIC50 against GST-hRIPK1 (8-327) [3] is 5.00 to 6.00. For `CN1C(=O)[C@@H](NC(=O)c2cc(Cc3ccccc3)on2)[C@H]2C[C@H]2c2nccnc21` [Example 197, 5-benzyl-N-((7S,7aS,8aR)-5-methyl-6-oxo-5,6,7,7a,8,8a-hexahydrocyclopropa[d]pyrazino[2,3-b]azepin-7-yl)isoxazole-3-carboxamide], the “Human hepatocyte CLhep Avg” value in data set [1] is listed as 13 mL/min/kg. On GST-hRIPK1 (8-327) [2], the pIC50 was 6.00 to 10.00. As to `O=C(N[C@H]1COC[C@@H]2CCCN2C1=O)c1cc(Cc2ccccc2)on1` [Example 22, 5-benzyl-N-((4S,9aS)-5-oxohexahydro-1H,3H-pyrrolo[2,1-c][1,4]oxazepin-4-yl)isoxazole-3-carboxamide], the pIC50 at GST-hRIPK1 (8-327) [3] is under 5.00.
